Results: patent US11897867B2, “6-phenyl-4,5-dihydropyridazin-3(2H)-one derivatives as PDE3A and PDE3B inhibitors for treating cancer” (Bayer Aktiengesellschaft, priority 2017, dated 2024)

What was measured:
human full length PDE3A = molecular target: T1, human full length PDE3A (Homo sapiens, UniProt Q14432); experiment: PDE3A enzyme inhibition (3H-cAMP Scintillation Proximity Assay); type: biochemical; details: PDE3A cell extract from Sf9 cells, 60 min room temperature; read-out: Target IC50 PDE3A IC50
T1 construct: Sf9 cells overexpressing human full length PDE3A; purchased SB Drug Discovery, UK; host or cells: Sf9 cells (cell extract)
Description: (§1) The commercially available 3H-cAMP Scintillation Proximity Assay (SPA, Perkin Elmer) system was used for enzyme inhibition studies. For the determination of the in vitro effect of test substances on the PDE3A reactions 2 μl of the respective test compound solution in DMSO (serial dilutions) were is placed in wells of microtiter plates (Isoplate-96/200W; Perkin Elmer). 50 μl of a dilution of PDE3A cell extract from Sf9 cells overexpressing human full length PDE3A (SB Drug Discovery, UK) in buffer A (50 mM Tris/HCl pH 7.5, 8.3 mM MgCl2, 1.7 mM EDTA, 0.2% BSA) was added. The dilution of the PDE3A cell extract was chosen such that the reaction kinetics was linear and less than 70% of the substrate was consumed (typical dilution 1:5000). The reaction was started by addition of 50 μl (0.025 μCi) of 1:2000 in buffer A w/o BSA diluted substrate [8-3H] adenosine 3′,5′-cyclic phosphate (1 μCi/μl; Perkin Elmer). After incubation at room temperature for 60 min, the reaction was stopped by addition of 25 μl of a suspension containing 18 mg/ml yttrium scintillation proximity beads (Perkin Elmer) in water. The microtiter plates were sealed and measured in a Microbeta scintillation counter (PerkinElmer Wallac). IC50 values were determined from sigmoidal curves by plotting percentage PDE3A activity vs log compound concentration.

SK-MEL-3 (melanoma) = experiment: Cell proliferation measurement (Cell Titer Glo), SK-MEL-3; type: cell-based; details: Homo sapiens, SK-MEL3, SK-MEL-3 cells, 72 h treatment, read-out: Anti-proliferation IC50 SK-MEL-3 (melanoma)
Description: (§2) The antiproliferative activity of the compounds of the general formula (I) was examined in vitro in human cancer cells. For this purpose, 1000 cells (or 500 HeLa cells) were plated in 384-well plates with appropriate growth medium and incubated at 37° C. overnight. After 24 h, the cells on the test plate were treated with the compounds of the general formula (I) as and incubated at 37° C. for 72 h. The compounds were added to the cells by means of an HP D300 digital dispenser in a 10 (or more)-step dilution series. As control, the cells were treated with vehicle (DMSO at 0.3% final concentration). After 72 h, the cells were treated with 20 μl/well of 50% CTG solution in PBS (Promega Cell Titer Glo (catalogue #G755B and G756B)) and incubated at room temperature for 10 min, and luminescence was measured by means of a VICTOR V (Perkin Elmer), in order to determine cell viability at the end of treatment. The percentage effect on cell growth and the IC50 derived therefrom were determined for each test substance using the values from untreated wells (=percent viability). The IC50 values were calculated using a 4-parameter fit.

[1] = test system: HeLa cells (cervical cancer); experiment: Cell proliferation measurement (Cell Titer Glo), HeLa; type: cell-based; details: Homo sapiens, 72 h treatment, read-out: Anti-proliferation IC50 HeLa (Cervical cancer)
Description: as §2

human full length PDE3B = molecular target: T2, human full length PDE3B (Homo sapiens, UniProt Q13370); experiment: PDE3B enzyme inhibition (3H-cAMP Scintillation Proximity Assay); type: biochemical; details: PDE3B cell extract from Sf9 cells, 60 min room temperature; read-out: Target IC50 PDE3B IC50
T2 construct: Sf9 cells overexpressing human full length PDE3B; purchased SB Drug Discovery, UK; host or cells: Sf9 cells (cell extract)
Description: as §1, with “PDE3B” for “PDE3A”, “were” for “were is”, “1:6000).” for “1:5000).”

T2 sequence (Q13370 whole entry): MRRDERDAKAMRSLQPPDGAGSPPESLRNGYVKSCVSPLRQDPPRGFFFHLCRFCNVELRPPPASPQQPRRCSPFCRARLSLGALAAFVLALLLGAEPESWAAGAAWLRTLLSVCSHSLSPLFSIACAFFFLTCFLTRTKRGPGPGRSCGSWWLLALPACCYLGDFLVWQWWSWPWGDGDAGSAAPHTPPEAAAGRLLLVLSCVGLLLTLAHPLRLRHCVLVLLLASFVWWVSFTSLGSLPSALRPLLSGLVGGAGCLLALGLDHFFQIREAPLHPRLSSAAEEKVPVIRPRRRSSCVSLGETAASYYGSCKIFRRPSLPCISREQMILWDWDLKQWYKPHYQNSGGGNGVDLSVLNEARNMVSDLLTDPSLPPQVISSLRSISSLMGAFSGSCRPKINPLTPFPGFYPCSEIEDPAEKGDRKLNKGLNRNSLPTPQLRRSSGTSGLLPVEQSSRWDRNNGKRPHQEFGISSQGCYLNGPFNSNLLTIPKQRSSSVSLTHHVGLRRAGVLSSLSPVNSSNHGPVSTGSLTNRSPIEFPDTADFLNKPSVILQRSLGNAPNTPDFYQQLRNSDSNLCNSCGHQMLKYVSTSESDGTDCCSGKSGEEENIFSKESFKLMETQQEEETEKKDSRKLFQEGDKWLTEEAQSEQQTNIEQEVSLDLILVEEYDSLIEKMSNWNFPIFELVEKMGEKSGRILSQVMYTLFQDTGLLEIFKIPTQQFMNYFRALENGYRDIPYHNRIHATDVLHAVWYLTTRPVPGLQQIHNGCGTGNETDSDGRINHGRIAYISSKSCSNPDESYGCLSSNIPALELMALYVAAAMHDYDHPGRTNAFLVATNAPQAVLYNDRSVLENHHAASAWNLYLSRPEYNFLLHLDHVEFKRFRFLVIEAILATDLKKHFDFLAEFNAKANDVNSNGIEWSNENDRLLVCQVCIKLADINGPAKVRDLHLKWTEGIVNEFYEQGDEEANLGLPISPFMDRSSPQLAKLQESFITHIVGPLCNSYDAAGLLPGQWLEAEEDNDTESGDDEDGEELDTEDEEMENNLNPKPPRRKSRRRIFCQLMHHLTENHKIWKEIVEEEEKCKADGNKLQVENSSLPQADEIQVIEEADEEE
T1 sequence (Q14432 whole entry): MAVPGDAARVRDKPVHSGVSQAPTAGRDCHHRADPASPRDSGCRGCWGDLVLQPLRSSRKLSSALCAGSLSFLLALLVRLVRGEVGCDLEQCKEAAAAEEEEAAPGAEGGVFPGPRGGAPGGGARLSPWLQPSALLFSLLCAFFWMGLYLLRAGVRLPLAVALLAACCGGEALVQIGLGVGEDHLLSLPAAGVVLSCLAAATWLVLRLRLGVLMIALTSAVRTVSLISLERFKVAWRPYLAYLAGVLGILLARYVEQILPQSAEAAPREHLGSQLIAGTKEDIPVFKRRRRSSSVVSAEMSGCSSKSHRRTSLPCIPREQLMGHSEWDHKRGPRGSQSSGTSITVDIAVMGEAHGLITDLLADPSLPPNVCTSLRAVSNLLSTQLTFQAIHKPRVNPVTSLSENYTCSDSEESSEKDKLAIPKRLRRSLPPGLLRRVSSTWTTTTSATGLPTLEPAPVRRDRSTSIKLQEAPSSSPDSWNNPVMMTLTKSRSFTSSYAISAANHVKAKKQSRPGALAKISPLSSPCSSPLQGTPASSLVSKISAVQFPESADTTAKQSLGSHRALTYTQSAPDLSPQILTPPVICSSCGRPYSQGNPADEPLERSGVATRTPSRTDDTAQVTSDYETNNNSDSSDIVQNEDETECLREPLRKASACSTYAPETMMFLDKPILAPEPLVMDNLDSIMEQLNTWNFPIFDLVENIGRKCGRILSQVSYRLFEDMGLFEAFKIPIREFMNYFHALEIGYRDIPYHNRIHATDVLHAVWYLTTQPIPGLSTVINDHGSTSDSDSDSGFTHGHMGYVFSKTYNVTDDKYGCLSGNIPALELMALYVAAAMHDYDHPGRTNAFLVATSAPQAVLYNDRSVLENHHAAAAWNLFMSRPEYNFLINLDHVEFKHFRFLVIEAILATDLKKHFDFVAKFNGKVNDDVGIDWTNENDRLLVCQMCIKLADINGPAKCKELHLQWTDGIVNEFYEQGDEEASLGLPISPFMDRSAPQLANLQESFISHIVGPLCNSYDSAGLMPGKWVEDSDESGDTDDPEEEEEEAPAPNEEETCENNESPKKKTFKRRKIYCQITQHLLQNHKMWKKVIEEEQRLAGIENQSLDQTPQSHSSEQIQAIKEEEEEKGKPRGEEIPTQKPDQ

Structure (SMILES)	IC50 (human full length PDE3A)	IC50 (SK-MEL-3 (melanoma))	IC50 [1]	IC50 (human full length PDE3B)
Cc1ccc(C)c(-c2ccc(C3=NNC(=O)CC3)cc2F)c1 [Example 88, 6-(2-fluoro-2′,5′-dimethyl[1,1′-biphenyl]-4-yl)-4,5-dihydropyridazin-3(2H)-one]	230 nM	> 100 nM	91.6 nM	230 nM
Cc1cc(C2=NNC(=O)CC2)ccc1-c1cc(F)c(F)c(F)c1 [Example 96, 6-(3′,4′,5′-trifluoro-2-methyl[1,1′-biphenyl]-4-yl)-4,5-dihydropyridazin-3(2H)-one]	310 nM	> 100 nM	18.5 nM	260 nM
Cc1cc(C2=NNC(=O)CC2)ccc1-c1cnc(N)nc1 [Example 91, 6-[4-(2-aminopyrimidin-5-yl)-3-methylphenyl]-4,5-dihydropyridazin-3(2H)-one]	57 nM	> 100 nM	51.9 nM	73 nM
O=C1CCC(c2ccc(C3=CCOCC3)cc2)=NN1 [Example 1, 6-[4-(3,6-Dihydro-2H-pyran-4-yl)phenyl]-4,5-dihydropyridazin-3(2H)-one]	470 nM	> 100 nM	30.9 nM	290 nM
O=C1CCC(c2ccc(-c3ccncc3Cl)c(F)c2)=NN1 [Example 69, 6-[4-(3-chloropyridin-4-yl)-3-fluorophenyl]-4,5-dihydropyridazin-3(2H)-one]	140 nM	38.6 nM	18.3 nM	95 nM
Cc1cc(C2=NNC(=O)CC2)ccc1-c1cc(F)c(F)cc1F [Example 95, 6-(2′,4′,5′-trifluoro-2-methyl[1,1′-biphenyl]-4-yl)-4,5-dihydropyridazin-3(2H)-one]	180 nM	60.7 nM	9.32 nM	200 nM
COc1cccc(-c2ccc(C3=NNC(=O)CC3)cc2F)c1OC [Example 78, 6-(2-fluoro-2′,3′-dimethoxy[1,1′-biphenyl]-4-yl)-4,5-dihydropyridazin-3(2H)-one]	320 nM	69 nM	53.3 nM	600 nM
COc1ccc(-c2ccc(C3=NNC(=O)CC3)cc2C)cn1 [Example 118, 6-[4-(6-methoxypyridin-3-yl)-3-methylphenyl]-4,5-dihydropyridazin-3(2H)-one]	76 nM	> 100 nM	55.4 nM	90 nM
N#Cc1cc(C2=NNC(=O)CC2)ccc1N1CCOCC1 [Example 15, 2-(Morpholin-4-yl)-5-(6-oxo-1,4,5,6-tetrahydropyridazin-3-yl)benzonitrile]	110 nM	69.5 nM	44.8 nM	77 nM
COc1ccc(-c2ccc(C3=NNC(=O)CC3)cc2F)cn1 [Example 82, 6-[3-fluoro-4-(6-methoxypyridin-3-yl)phenyl]-4,5-dihydropyridazin-3(2H)-one]	83 nM	23.6 nM	14 nM	85 nM
Cc1cc(C2=NNC(=O)CC2)ccc1-c1cccc(N)c1 [Example 103, 6-(3′-amino-2-methyl[1,1′-biphenyl]-4-yl)-4,5-dihydropyridazin-3(2H)-one]	170 nM	> 100 nM	36.8 nM	200 nM
Cc1cc(C2=NNC(=O)CC2)ccc1-c1cn[nH]c1 [Example 6, 6-[3-Methyl-4-(1H-pyrazol-4-yl)phenyl]-4,5-dihydropyridazin-3(2H)-one]	72 nM	89.3 nM	53.3 nM	87 nM
Cc1cc(C2=NNC(=O)CC2)ccc1-c1cc(F)cc(F)c1 [Example 105, 6-(3′,5′-difluoro-2-methyl[1,1′-biphenyl]-4-yl)-4,5-dihydropyridazin-3(2H)-one]	200 nM	> 100 nM	27.6 nM	200 nM
COc1cccc(-c2ccc(C3=NNC(=O)CC3)cc2F)c1 [Example 64, 6-(2-fluoro-3′-methoxy[1,1′-biphenyl]-4-yl)-4,5-dihydropyridazin-3(2H)-one]	100 nM	23.1 nM	12 nM	91 nM
CCOc1ccccc1-c1ccc(C2=NNC(=O)CC2)cc1F [Example 52, 6-(2′-ethoxy-2-fluoro[1,1′-biphenyl]-4-yl)-4,5-dihydropyridazin-3(2H)-one]	95 nM	> 100 nM	66.8 nM	65 nM
O=C1CCC(c2ccc(-c3ccccc3C(F)(F)F)c(F)c2)=NN1 [Example 61, 6-[2-fluoro-2′-(trifluoromethyl)[1,1′-biphenyl]-4-yl]-4,5-dihydropyridazin-3(2H)-one]		37.6 nM	19.5 nM	

The next compounds have a lower IC50 (SK-MEL-3 (melanoma)) than those just listed; values first:

IC50 (human full length PDE3A)	IC50 (SK-MEL-3 (melanoma))	IC50 [1]	IC50 (human full length PDE3B)	Structure (SMILES)
110 nM	21 nM	13.3 nM	180 nM	O=C1CCC(c2ccc(-c3ccc4cc[nH]c4c3)c(F)c2)=NN1 [Example 74, 6-[3-fluoro-4-(1H-indol-6-yl)phenyl]-4,5-dihydropyridazin-3(2H)-one]
150 nM	14.1 nM	5.63 nM	150 nM	Cc1cc(C2=NNC(=O)CC2)ccc1-c1ccccc1F [Example 109, 6-(2′-fluoro-2-methyl[1,1′-biphenyl]-4-yl)-4,5-dihydropyridazin-3(2H)-one]
405 nM	9.8 nM	4.86 nM	128 nM	O=C1CCC(c2cc(F)c(N3CCCCC3)c(F)c2)=NN1 [Example 16, 6-[3,5-Difluoro-4-(piperidin-1-yl)phenyl]-4,5-dihydropyridazin-3(2H)-one]
90 nM	8.73 nM	5.52 nM	89 nM	Nc1ccc(-c2ccc(C3=NNC(=O)CC3)cc2F)cc1 [Example 76, 6-(4′-amino-2-fluoro[1,1′-biphenyl]-4-yl)-4,5-dihydropyridazin-3(2H)-one]
39 nM	6.25 nM	4.27 nM	35 nM	O=C1CCC(c2ccc(-c3cccnc3F)c(F)c2)=NN1 [Example 72, 6-[3-fluoro-4-(2-fluoropyridin-3-yl)phenyl]-4,5-dihydropyridazin-3(2H)-one]
130 nM	4.03 nM	2.83 nM	130 nM	O=C1CCC(c2ccc(-c3ccccc3O)c(F)c2)=NN1 [Example 50, 6-(2-fluoro-2′-hydroxy[1,1′-biphenyl]-4-yl)-4,5-dihydropyridazin-3(2H)-one]
56 nM	3.66 nM	2.11 nM	28 nM	Cc1ccncc1-c1ccc(C2=NNC(=O)CC2)cc1F [Example 67, 6-[3-fluoro-4-(4-methylpyridin-3-yl)phenyl]-4,5-dihydropyridazin-3(2H)-one]
50 nM	3.39 nM	1.96 nM	62 nM	O=C1CCC(c2ccc(-c3ccc(F)cc3F)c(F)c2)=NN1 [Example 55, 6-(2,2′,4′-trifluoro[1,1′-biphenyl]-4-yl)-4,5-dihydropyridazin-3(2H)-one]
